The source of these data is patent US9902737B2, “Sweet flavor modifier” (SENOMYX, INC., priority 2010, dated 2018).

Structures are written as SMILES. Values joined by “and” are separate entries in the source; they are usually repeats but may differ in a detail not shown here. Equal values may be shown once.

Usually melting point stands for the temperature of the solid-liquid transition.

The subject of data set [1] is human panelists. The data set can be described thus: Sweet flavor enhancement, human panelists, scaling test. It is filed as in vivo. Also noted: key: 0 = no sweetness, 15 = sweetness equal to 15% sucrose. The settings on record: 0-15 line scale. The text has this: Test samples containing experimental compounds were compared to a dose-response curve for perceived sweetness intensity of sweeteners (sucralose, sucrose, fructose and other sweeteners) concentrations to determine equivalent sweetness intensity.
A group of eight or more panelists tasted solutions including sweeteners at various concentrations, as well as the experimental compound both with and without added sweetener. Panelists then rated sweetness intensity of all samples on a structured horizontal line scale, anchored from 0 to 15, where 0 equals no sweetness and 15 equals equivalent sweetness to a 15% sucrose sample. Scores for sweetness intensity were averaged across panelists. Then using the average scores and/or equation of the line for the sweetener dose-response curve, equivalent sweetness concentrations were determined for the samples containing experimental compounds.
Subjects had been previously familiarized with the key attribute taste and were trained to use the 0 to 15 point line scale. Subjects refrained from eating or drinking (except water) for at least 1 hour prior to the test. Subjects ate a cracker and rinsed with water several times to clean the mouth.
Sweetener solutions are provided at a wide range of concentrations such as 100 ppm, 200 ppm, 300 ppm, 400 ppm, and 500 ppm for sucralose, or between 0% and 12% for sucrose or fructose, in order to create a dose-response curve. Samples containing experimental compound were prepared both alone and in a 100 ppm sucralose solution or a 6% sucrose or fructose solution. All samples were made up in low sodium buffer pH 7.1. In order to aid dispersion, solutions can be made up in 0.1% ethanol.
The solutions were dispensed in 20 ml volumes into 1 oz. sample cups and served to the subjects at room temperature. All samples were presented in randomized counterbalanced order to reduce response bias. Further, two sessions of testing may be used to check panel precision.
Subjects tasted each sample individually and rate sweetness intensity on the line scale prior to tasting the next sample. All samples were expectorated. Subjects may retaste the samples but can only use the volume of sample given. Subjects must rinse with water between samples. Eating an unsalted cracker between samples may be required depending on the samples tasted.
The scores for each sample were averaged across subjects and standard error was calculated. The dose-response curve was plotted graphically, and this may be used to ensure the panel is rating accurately; i.e., increasing the concentration of sucralose should correspond to increased average scores for sweetness. A 2-way ANOVA (factors being samples and panelists) and multiple comparison tests (such as Tukey's Honestly Significant Difference test) can be used to determine differences among samples and/or panelists. A 3-way ANOVA, with sessions as the third factor, can be used to determine if there is any difference in the ratings between sessions.

In data set [2] the test system is human panelists. Put plainly: Sweet flavor enhancement, human panelists, paired comparison test. It is filed as in vivo. The method, then: Test samples containing experimental compounds are presented in pairs to the panelist and they are asked to determine which of the sample is sweeter. A group of 10-16 or more panelists participated in each test. Subjects refrained from eating or drinking (except water) for at least 1 hour prior to the test. Subjects rinsed with water several times to clean the mouth.
All samples are prepared with ethanol to ensure dispersion of the compound in solution. This includes samples without compound; all solutions are balanced for 0.1% ethanol.
Samples are also prepared with low sodium buffer (pH 7.1) in place of water. Buffer contains 0.952 g of KCl, 5.444 g of Na2HPO4, and 0.952 g of KH2PO4 in 40 L of DIUF water. Sample volumes are usually 20 ml.
In one paired comparison test, the panelist is presented with two different samples and asked to identify the sample which is sweeter. The samples within a paired comparison test are presented in a randomized, counterbalanced order. Panelists have up to a 1 minute delay between taste tests to clear the mouth of any tastes.
Binomial probability tables are used to determine the probability of the correct number of responses occurring for each test at alpha=0.05

The next data set deals with T1, hT1R2/R3 (Homo sapiens, UniProt Q7RTX0+Q8TE23).
T1 construct: expressed in transfected cells; host or cells: HEK293 cells expressing Ga15 (hT1R2/R3-HEK293 Ga15)
T1 sequence (Q8TE23 20-839): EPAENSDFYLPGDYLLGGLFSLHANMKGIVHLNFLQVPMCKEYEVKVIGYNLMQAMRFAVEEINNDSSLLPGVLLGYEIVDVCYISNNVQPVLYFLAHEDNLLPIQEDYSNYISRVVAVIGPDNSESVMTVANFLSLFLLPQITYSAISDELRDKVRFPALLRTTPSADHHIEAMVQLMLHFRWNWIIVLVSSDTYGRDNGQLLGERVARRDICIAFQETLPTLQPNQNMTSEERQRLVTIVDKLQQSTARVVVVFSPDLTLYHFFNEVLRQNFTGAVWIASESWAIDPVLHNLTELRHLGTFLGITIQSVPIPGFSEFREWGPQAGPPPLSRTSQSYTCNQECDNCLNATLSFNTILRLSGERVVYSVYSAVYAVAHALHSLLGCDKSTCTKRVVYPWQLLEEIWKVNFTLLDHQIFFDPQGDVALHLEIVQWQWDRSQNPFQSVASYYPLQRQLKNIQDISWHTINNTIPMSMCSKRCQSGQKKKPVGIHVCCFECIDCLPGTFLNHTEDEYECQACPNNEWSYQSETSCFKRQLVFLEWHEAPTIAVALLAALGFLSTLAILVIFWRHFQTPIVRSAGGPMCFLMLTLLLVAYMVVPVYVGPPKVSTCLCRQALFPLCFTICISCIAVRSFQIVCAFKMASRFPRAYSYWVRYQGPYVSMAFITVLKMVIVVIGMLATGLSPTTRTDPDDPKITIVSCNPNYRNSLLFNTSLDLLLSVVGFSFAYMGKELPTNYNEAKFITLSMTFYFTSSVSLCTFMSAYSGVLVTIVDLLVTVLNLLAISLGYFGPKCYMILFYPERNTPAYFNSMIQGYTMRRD
T1 sequence (Q7RTX0 21-852): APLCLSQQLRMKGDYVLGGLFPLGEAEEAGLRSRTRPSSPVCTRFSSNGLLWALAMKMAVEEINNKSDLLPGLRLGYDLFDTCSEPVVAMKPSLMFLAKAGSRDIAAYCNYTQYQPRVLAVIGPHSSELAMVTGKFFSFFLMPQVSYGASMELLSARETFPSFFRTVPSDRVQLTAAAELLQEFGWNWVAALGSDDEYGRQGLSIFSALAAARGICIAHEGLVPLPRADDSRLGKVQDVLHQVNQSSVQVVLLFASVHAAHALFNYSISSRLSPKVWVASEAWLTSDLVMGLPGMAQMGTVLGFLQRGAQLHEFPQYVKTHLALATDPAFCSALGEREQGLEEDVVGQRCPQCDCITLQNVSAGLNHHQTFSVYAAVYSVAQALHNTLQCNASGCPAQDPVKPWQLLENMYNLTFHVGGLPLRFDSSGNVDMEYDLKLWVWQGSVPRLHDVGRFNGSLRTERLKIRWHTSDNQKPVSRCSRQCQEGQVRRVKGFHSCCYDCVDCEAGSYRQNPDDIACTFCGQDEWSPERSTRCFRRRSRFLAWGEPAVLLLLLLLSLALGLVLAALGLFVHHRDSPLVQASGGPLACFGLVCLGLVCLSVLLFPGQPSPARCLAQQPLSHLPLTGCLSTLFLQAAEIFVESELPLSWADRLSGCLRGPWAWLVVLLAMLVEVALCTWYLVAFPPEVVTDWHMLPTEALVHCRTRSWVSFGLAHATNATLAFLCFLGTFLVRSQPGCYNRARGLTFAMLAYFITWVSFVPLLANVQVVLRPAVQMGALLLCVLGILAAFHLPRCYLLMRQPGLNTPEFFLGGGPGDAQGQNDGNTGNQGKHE
The data set can be described thus: Screening for sweet enhancers: sucrose EC50 shift, FLIPR calcium assay. Conditions: sucrose EC50 without enhancer / with enhancer; test compound 50 μM; hT1R2/R3-HEK293 Ga15 cells; Tables A and B. It is filed as cell-based. The method, then:
hT1R2/R3-HEK293 Ga15 cells were seeded in 384-well-clear bottom plates (Fisher) at a density of ˜32,000 cells/well and grown overnight. On the day of the experiment, hT1R2/R3-HEK293 Ga15 were loaded with the calcium indicator Fluo3AM ([…]) (Invitrogen, Carlsbad, Calif.) in D-PBS (Invitrogen, Carlsbad, Calif.) using a Multidrop. Cells were incubated for 1 hour at room temperature and excess dye was washed out with D-PBS using an EMBLA cell washer (Molecular Devices, Sunnyvale, Calif.), leaving a residual volume of […]. […] After 30 minutes of rest time at room temperature, Fluo3AM-loaded cell plates, and the sweetener/compound plate mixture were loaded into a Fluorometric Imaging Plate Reader (FLIPR) (Molecular Devices, Sunnyvale, Calif.). Imaging was performed using a 480 nm excitation and a 535 emission and was initiated with the acquisition of the baseline fluorescence for a period of 7 seconds. […] Raw fluorescence counts were then normalized in each well (using custom made data import software) by calculating delta F/f values (maximum fluorescent count obtained after stimulation—minimal fluorescent count obtained before stimulation/minimal fluorescent count obtained before stimulation). EC50s were determined using a non-linear regression algorithm (GraphPad PRISM, San Diego, Calif.), where the Hill slope, bottom asymptotes and top asymptotes were allow to vary. […]

For `Cc1nc2cccc(OCC(C)(C)NC(=O)c3cccc(O)c3)c2c(N)c1C(=O)O` [Example 25, 4-amino-5-(2-(3-hydroxybenzamido)-2-methylpropoxy)-2-methylquinoline-3-carboxylic acid], the melting point fell in the range of 195 to 198 °C.
In the case of `OC[C@H]1O[C@H](O[C@]2(CCl)O[C@H](CCl)[C@@H](O)[C@@H]2O)[C@H](O)[C@@H](O)[C@H]1Cl` [sucralose], the Average sweetness in the data set with human panelists [1] (50 ppm sucralose alone (reference)) was 3.9; with human panelists [1] (100 ppm sucralose alone (reference)) it was 5.9 and 5.5; in the data set on human panelists [1] (200 ppm sucralose alone (reference)) it was 8.7 and 9.1; in the data set with human panelists [1] (300 ppm sucralose alone (reference)), 10.2.
For `Cc1nc2cccc(OCC(C)(C)NC(=O)c3ccncc3)c2c(N)c1C(=O)O` [Example 24, 4-amino-5-(2-(isonicotinamido)-2-methylpropoxy)-2-methylquinoline-3-carboxylic acid], the melting point lay within 195 to 198 °C.
In the case of `Cc1nc2cccc(OCC(C)C)c2c(N)c1C(=O)O` [Example 41, 4-amino-5-isobutoxy-2-methylquinoline-3-carboxylic acid], the melting point came out at 203.7 °C.
`OC[C@H]1O[C@@](CO)(O[C@H]2O[C@H](CO)[C@@H](O)[C@H](O)[C@H]2O)[C@@H](O)[C@@H]1O` [Sucrose, sucrose]: the Average sweetness in the data set with human panelists [1] (6% sucrose alone (reference)) is 6.6 and 6.5 and 6.3 and 6.2 and 6.1 and 6.4; with human panelists [1] (8% sucrose alone (reference)) it was 8.2 and 8.1 and 7.8 and 7.9 and 8.4; in the data set on human panelists [1] (9% sucrose alone (reference)) it was 9.2 and 8.4 and 8.6 and 8.5; with human panelists [1] (10% sucrose alone (reference)) it was 9.7 and 9.5 and 9.2 and 9.0 and 9.6 and 10.3; in the data set with human panelists [1] (12% sucrose alone (reference)), 10.9. Besides, the “Sample selected as sweeter by panelists, Total” value with human panelists [2] (pair: 1% sucrose vs LSB + 25 uM Compound A, total 45) is 44; in the data set with human panelists [2] (pair: 1% sucrose vs LSB + 25 uM Compound I3, total 42) it was 36; in the data set on human panelists [2] (pair: 1% sucrose vs LSB + 33 uM Compound C1, total 22), 18; with human panelists [2] (pair: 1% sucrose vs LSB + 36.5 uM Compound B4, total 45) it was 44; with human panelists [2] (pair: 1% sucrose vs LSB + 45 uM Compound J, total 48), 47; in the data set with human panelists [2] (pair: 10% sucrose vs 6% sucrose + 25 uM Compound A, total 48), 28. Moreover, the “Sample selected as sweeter by panelists, Total” value in the data set on human panelists [2] (pair: 10% sucrose vs 6% sucrose + 36.5 uM Compound B4, total 26) is reported as 10; in the data set with human panelists [2] (pair: 10% sucrose vs 6% sucrose + 45 uM Compound J, total 42), 17; in the data set with human panelists [2] (pair: 12% sucrose vs 6% sucrose + 25 uM Compound I3, total 42) it was 18; with human panelists [2] (pair: 12% sucrose vs 6% sucrose + 33 uM Compound C1, total 30), 17.
The compound `CCC(CC)COc1cccc2nc(C)c(C(=O)O)c(N)c12` [Example 22, 4-amino-5-(2-ethylbutoxy)-2-methylquinoline-3-carboxylic acid] registered a melting point of 145 to 151 °C.
On the same count and under the same terms, the figure for `Cc1nc2cccc(OC3CCCCC3)c2c(N)c1C(=O)O` [Example 36, 4-amino-5-(cyclohexyloxy)-2-methylquinoline-3-carboxylic acid] is 220 to 221.5 °C.
`CCCNC(=O)C(C)(C)COc1cccc2nc(CC)c(C(=O)O)c(N)c12` [Compound Q, 4-amino-5-(2,2-dimethyl-3-oxo-3-(propylamino)propoxy)-2-ethyl-quinoline-3-carboxylic acid]: the “EC50 Ratio (50 μM)” value on hT1R2/R3 came to 3.4.
